Source: article PMC5733478, “A Non-imaging High Throughput Approach to Chemical Library Screening at the Unmodified Adenosine-A3 Receptor in Living Cells” (Frontiers in Pharmacology, 2017)
Structures can show the parent of a compound that is named as a salt. Where two headings read alike, the source gives them in different places.

Biological target: T1, human A3AR (Homo sapiens, UniProt P0DMS8)
T1 construct: expressed in transfected cells
T1 sequence (P0DMS8 1-318): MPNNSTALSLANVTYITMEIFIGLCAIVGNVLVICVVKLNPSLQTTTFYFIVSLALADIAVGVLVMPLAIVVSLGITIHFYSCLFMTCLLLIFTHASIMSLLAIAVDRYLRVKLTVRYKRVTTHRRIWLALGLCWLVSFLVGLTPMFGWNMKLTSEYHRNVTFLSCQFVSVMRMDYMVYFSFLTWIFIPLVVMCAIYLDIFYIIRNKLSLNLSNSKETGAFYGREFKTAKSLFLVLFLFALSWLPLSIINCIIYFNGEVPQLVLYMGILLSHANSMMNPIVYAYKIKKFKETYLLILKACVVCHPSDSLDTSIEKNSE
Experiment: LOPAC library primary screen: single concentration (10 μM) inhibition of 25 nM CA200645 binding, PHERAstar FS

[1] = compounds tested at 10 µM, % of control wells (1% DMSO and 25 nM CA200645), whole live cells expressing the A3AR, mean ± SD, three experiments in duplicate
[2] = % of control wells (1% DMSO and 25 nM CA200645), compounds at 10 µM, whole live cells expressing the A3AR, mean ± SD, three experiments in duplicate

| Structure (SMILES) | % 25 nM CA200645 binding [%] | other results |
| --- | --- | --- |
| N#CC(=C(/N)Sc1ccccc1N)/C(C#N)=C(/N)Sc1ccccc1N [U0126] | 97.2 ± 19.0 |  |
| OC[C@H]1OC(n2cnc3ccccc32)[C@H](O)[C@@H]1O (stereo partly drawn) [D-ribofuranosylbenzimidazole] | 98.4 ± 15.0 |  |
| C[C@]12CC[C@@H]3c4ccc(O)cc4CC[C@H]3[C@@H]1CC[C@@H]2O [beta-Estradiol] | 87.8 ± 13.4 |  |
| CN1C[C@H](C(=O)N[C@]2(C)O[C@@]3(O)[C@@H]4CCCN4C(=O)[C@H](Cc4ccccc4)N3C2=O)C[C@@H]2c3cccc4[nH]cc(c34)C[C@H]21 [Dihydroergotamine methanesulfonate] | 99.2 ± 11.1 |  |
| Cl.c1ccc2nc(C3=NCCN3)ccc2c1 [BU224 hydrochloride] | 100.8 ± 7.2 |  |
| [H]/N=C(/NC)NCCC[C@H](N)C(=O)O [NG-Monomethyl-L-arginine acetate] |  | % 25 nM CA200645 binding [1]: 112.2 ± 7.1% |
| CN(C(=O)CCCOc1ccc2[nH]c(=O)ccc2c1)C1CCCCC1 [Cilostamide] |  | % 25 nM CA200645 binding [2]: 75.9 ± 3.4% |
| CC(C)C[C@H]1C(=O)N2CCC[C@H]2[C@]2(O)O[C@](NC(=O)[C@@H]3C=C4c5cccc6[nH]c(Br)c(c56)C[C@H]4N(C)C3)(C(C)C)C(=O)N12.CS(=O)(=O)O [(+)-Bromocriptine methanesulfonate] | 60.6 ± 9.2 |  |
| CNC(=O)Oc1ccc2c(c1)[C@]1(C)CCN(C)[C@@H]1N2C [(-)-Physostigmine] | 99.3 ± 6.1 |  |
| O=C(O)c1cc([N+](=O)[O-])ccc1NCCCc1ccccc1 | 120.8 ± 13.5 |  |
| CC(=O)OC[C@H]1O[C@@H]([S-])[C@H](OC(C)=O)[C@@H](OC(C)=O)[C@@H]1OC(C)=O.CCP(CC)CC.[Au+] [Auranofin] | 82.1 ± 31.0 |  |
| CCCCCCCC/C=C\CCCCCCCC(=O)NCCc1ccc(O)c(O)c1 [N-Oleoyldopamine] | 53.5 ± 8.3 |  |
| O=C(O)CCC/C=C\C[C@@H]1[C@@H](/C=C/[C@H](O)C2Cc3ccccc3C2)[C@@H](F)C[C@@H]1O [AL-8810] | 75.0 ± 17.3 |  |
| C/C(=C\c1ccc(C(=O)O)cc1)c1ccc2c(c1)C(C)(C)CCC2(C)C [TTNPB] | 92.9 ± 11.5 |  |
| C[C@]12CC[C@@H]3c4ccc(O)cc4CC[C@H]3[C@@H]1CCC2=O [Estrone] | 91.0 ± 8.5 |  |
| CC(C)(C)c1onc(OCP(=O)(O)O)c1CC(N)C(=O)O (stereo not drawn) [ATPO] | 98.4 ± 3.3 |  |
| C[N+]1(C)[C@@H]2CC[C@H]1C[C@@H](OC(=O)C(CO)c1ccccc1)C2 (stereo partly drawn) [Atropine methyl bromide] |  | % 25 nM CA200645 binding [1]: 102.2 ± 7.3% |
| Cl.O=c1cc(N2CCOCC2)oc2c(-c3ccccc3)cccc12 [LY-294,002 hydrochloride] | 94.6 ± 11.0 |  |
| CCN(CC)CCCCCCCCOC(=O)c1cc(OC)c(OC)c(OC)c1.Cl [TMB-8 hydrochloride] | 95.0 ± 0.4 |  |
| CC(C)(C)NCC(O)c1cc(O)cc(O)c1.CC(C)(C)NCC(O)c1cc(O)cc(O)c1.O=S(=O)(O)O (stereo not drawn) [Terbutaline hemisulfate] | 102.8 ± 10.1 |  |
| COC(=O)[C@@H](N)CCCN=C(N)N[N+](=O)[O-].Cl | 109.0 ± 16.7 |  |
| CC(C(O)c1ccc(O)cc1)N1CCC(Cc2ccccc2)CC1.CC(C(O)c1ccc(O)cc1)N1CCC(Cc2ccccc2)CC1.O=C(O)C(O)C(O)C(=O)O (stereo not drawn) [Ifenprodil tartrate] | 95.4 ± 10.6 |  |

| Structure (SMILES) | % 25 nM CA200645 binding [%] | other results |
| --- | --- | --- |
| C[N+]1(C)CCc2cc3c(cc2[C@H]1[C@@H]1OC(=O)c2c1ccc1c2OCO1)OCO3.[Br-] [(-)-Bicuculline methbromide, 1(S), 9(R)] | 67.4 ± 5.9 |  |
| CC(CN1c2ccccc2Sc2ccccc21)N(C)C (stereo not drawn) [Promethazine hydrochloride] | 96.7 ± 11.4 |  |
| N#Cc1cc([N+](=O)[O-])c2sc(C(N)=O)[n+]([O-])c2c1 [BTO-1] | 99.9 ± 23.7 |  |
| Br.COc1ccc2c(c1)[C@]13CCCC[C@@H]1[C@H](C2)N(C)CC3.O | 102.0 ± 12.4 |  |
| CC[C@@H]1Cc2cc(O)ccc2C2=C1c1ccc(O)cc1C[C@H]2CC | 85.9 ± 6.0 |  |
| CNC(=O)[C@H]1O[C@@H](n2cnc3c(NCc4cccc(I)c4)ncnc32)[C@H](O)[C@@H]1O [IB-MECA, reference compound] | 36.3 ± 4.0 | % Total CA200645 binding: 36.3 ± 4.0% |
| O=C1CC2(CCCC2)CC(=O)N1CCCCN1CCN(c2ncccn2)CC1 [Buspirone hydrochloride] | 102.9 ± 6.0 |  |
| CC(C)(C(=O)O)c1ccc(C(O)CCCN2CCC(C(O)(c3ccccc3)c3ccccc3)CC2)cc1 (stereo not drawn) [Fexofenadine hydrochloride] | 93.9 ± 3.6 |  |
| O=C(CCc1ccc(O)cc1)c1c(O)cc(O)cc1O [Phloretin] | 67.7 ± 15.2 |  |
| Nc1nc(N)c2nc(CNc3ccc(C(=O)N[C@@H](CCC(=O)O)C(=O)O)cc3)cnc2n1 [Aminopterin] | 91.1 ± 3.5 |  |
| O=C(Nc1ccncc1)c1cc([N+](=O)[O-])ccc1Cl [T0070907] | 110.9 ± 6.0 |  |
| CN1CCN(C2=Nc3ccccc3Oc3ccc(Cl)cc32)CC1 [Loxapine succinate] | 80.2 ± 12.7 |  |
| NC(N)=Nc1ccc2[nH]c3c(c2c1)C[C@@]1(O)[C@H]2Cc4ccc(O)c5c4[C@@]1(CCN2CC1CC1)[C@H]3O5.O=C(O)C(F)(F)F.O=C(O)C(F)(F)F | 93.9 ± 7.0 |  |
| CN(C)c1ccc(/C=C2\C(=O)Nc3ccccc32)cc1 [SU 4312] | 53.2 ± 16.7 |  |
| C[C@H](N)CN1CCc2ccc(Br)cc21.C[C@H](N)CN1CCc2ccc(Br)cc21.O=C(O)/C=C/C(=O)O [VER-3323 hemifumarate salt] | 107.7 ± 7.9 |  |
| Nc1ccc(CCNc2ncnc3c2ncn3[C@@H]2O[C@H](CO)[C@@H](O)[C@H]2O)cc1 [APNEA, reference compound] |  | % Total CA200645 binding (% of 25 nM CA200645 binding in the presence of 10 μM compound, LOPAC full screen, A3AR CHO cells): 41.0 ± 7.2% |
| CC(C)NCC(O)c1ccc(O)c(O)c1.Cl (racemic) [(±)-Isoproterenol hydrochloride] | 95.3 ± 10.4 |  |
| N[C@@H](CC(=O)O)C(=O)O [L-Aspartic acid] | 99.3 ± 3.7 |  |
| C[C@@H](N)[C@H]1CC[C@H](C(=O)Nc2ccncc2)CC1.Cl.Cl [Y-27632 dihydrochloride] | 98.6 ± 10.3 |  |
| CCOC(=O)N1CCC(=C2c3ccc(Cl)cc3CCc3cccnc32)CC1 [Loratadine] | 85.0 ± 1.8 |  |
| NC(=O)CC[C@H](N)C(=O)O [L-Glutamine] |  | % 25 nM CA200645 binding [2]: 99.9 ± 14.1% |
| Cn1c(=O)c2c(nc(C=Cc3cccc(Cl)c3)n2C)n(C)c1=O [8-(3-Chlorostyryl)caffeine] | 79.6 ± 7.9 |  |

| Structure (SMILES) | % 25 nM CA200645 binding [%] | other results |
| --- | --- | --- |
| CN(C)CCOC(=O)COc1ccc(Cl)cc1 [Centrophenoxine hydrochloride] | 90.4 ± 28.8 |  |
| C[C@H](Cc1ccc2c(c1)OC(C(=O)[O-])(C(=O)[O-])O2)NC[C@H](O)c1cccc(Cl)c1.[Na+].[Na+] [CL 316,243] | 38.7 ± 18.1 |  |
| S=C(NC1CCCCC1)N1CCC(c2cnc[nH]2)CC1 [Thioperamide maleate] | 99.7 ± 10.4 |  |
| COC(=O)C(C)(N)Cc1ccc(O)cc1.Cl (racemic) | 108.9 ± 8.2 |  |
| CC(C)NCC(O)COc1ccc(COCCOC(C)C)cc1.CC(C)NCC(O)COc1ccc(COCCOC(C)C)cc1.O=C(O)/C=C/C(=O)O (stereo not drawn) [Bisoprolol hemifumarate salt] | 106.9 ± 6.1 |  |
| CC1(C(=O)O)C2CCC(O2)C1(C)C(=O)O (stereo not drawn) [Cantharidic Acid] | 97.5 ± 13.0 |  |
| O=C(O)/C=C\C(=O)O.c1cnc(N2CCN(Cc3ccc4c(c3)OCO4)CC2)nc1 [Piribedil maleate] | 97.8 ± 1.7 |  |
| N[C@H](CCCP(=O)(O)O)C(=O)O [D(-)-2-Amino-5-phosphonopentanoic acid] |  | % 25 nM CA200645 binding [1]: 109.4 ± 11.9% |
| Cc1cc(Cl)ccc1OCCCC(=O)NO [Droxinostat] | 96.3 ± 1.9 |  |
| COc1ccc2c(c1)CC[C@@H]1[C@@H]2CC[C@]2(C)[C@@H](NCCCCCCN3C(=O)C=CC3=O)CC[C@@H]12 [U-73122] | 73.1 ± 7.4 |  |
| CC[C@H](CO)Nc1nc(NCc2ccccc2)c2ncn(C(C)C)c2n1 [Roscovitine] | 45.3 ± 8.6 |  |
| C[C@]12C[C@H](O)[C@H]3[C@@H](CCC4=CC(=O)CC[C@@]43C)[C@@H]1CC[C@@H]2C(=O)CO [Corticosterone] | 99.8 ± 5.3 |  |
| CCn1c(=O)[nH]c2cc(Cl)c(Cl)cc21 [DCEBIO] | 87.8 ± 8.9 |  |
| CN(C)c1nc(N(C)C)nc(N(C)C)n1 [Altretamine] | 99.1 ± 9.2 |  |
| CN1CCC[C@@H]1Cc1c[nH]c2ccc(Nc3ncccc3[N+](=O)[O-])cc12 [CP-135807] | 96.1 ± 6.8 |  |
| CC(C)(C)c1o[nH]c(=O)c1CC(N)C(=O)O (stereo not drawn) [ATPA] | 96.6 ± 6.2 |  |
| NS(=O)(=O)c1cc2c(cc1Cl)NC(C1CC3C=CC1C3)NS2(=O)=O (stereo not drawn) [Cyclothiazide] | 93.2 ± 4.7 |  |
| COc1ccc2c(c1)c(CC(=O)O)c(C)n2C(=O)c1ccccc1 | 59.0 ± 9.2 |  |
| C=CCn1c(=O)c2c(nc(-c3ccc(S(=O)(=O)O)cc3)n2C)n(C)c1=O | 97.5 ± 9.3 |  |
| O=C[C@H](Cl)[C@@H](O)[C@H](O)[C@H](O)CO [2-Chloro-2-deoxy-D-glucose] | 89.9 ± 5.0 |  |
| O=C(O)CCC(=O)N1CCC[C@H]1C(=O)O [N-Succinyl-L-proline] | 81.8 ± 11.2 |  |
